# From patent US20130102556A1, “Use of N1,N4-bis[3-(Ethylamino)Propyl]-2-Butene-1,4-Diamine Compounds in Combination with Epigenetic-Acting Pharmaceuticals for Enhanced Cancer Therapy” (THE JOHNS HOPKINS UNIVERSITY, priority 2010, published 2013)
# Legend:
# acetylated H3K9 (AcH3K9) = assay: Global acetylated H3K9 histone mark in Calu-6 cells, Western blot of nuclear protein; type: cell-based, human; conditions: Calu-6, increasing doses, 24 and 48 hours
# H3K4me2 = assay: Global H3K4me2 histone mark in Calu-6 cells, Western blot of nuclear protein; type: cell-based, human; conditions: Calu-6, increasing doses (1, 5, 10 μM), 24 hours of treatment
structure (smiles),measurement,setting,value
"CCNCCCNC/C=C\CNCCCNCC [PG-11047, (2Z)-N1,N4-bis[3-(ethylamino)propyl]-2-butene-1,4-diamine]",increase in global amounts of acetylated H3K9 protein,acetylated H3K9 (AcH3K9),2-3 fold
same,increase in H3K4me2 protein,H3K4me2,2-4 fold
